Results taken from US11491245B2, “Gadolinium chelate compounds for use in magnetic resonance imaging” (BAYER PHARMA AKTIENGESELLSCHAFT, priority 2015, dated 2022).
“Also recorded” adds a separate entry of the source.

Legend:
[1] = Relaxivity measurements at 1.41 T; format: physicochemical
Method in brief: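 T1 by inversion recovery and T2 by CPMG at 60 MHz, 37° C, relaxation delay ≥5×T1. Three Gd concentrations between 0.05 and 2 mM in water, FBS or fresh citrated human plasma. r1/r2 from slope of Ri versus Gd concentration (verified by ICP-MS).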

[2] = Pharmacokinetic parameters in rats (blood plasma kinetic); format: in vivo, male rats (Han-Wistar)
Protocol: Pharmacokinetic parameters of the compound of Example 3 were determined in male rats (Han-Wistar, 220-230 g, n=3). The compound was administered as a sterile aqueous solution (52.5 mmol Gd/L) as a bolus in the tail vein of the animals. The dose was 0.1 mmol Gd/kg. Blood was sampled 1, 3, 5, 10, 15, 30, 60, 90, 120, 240, 360, 480 and 1440 min post injection and the Gd concentration was determined by Inductively Coupled Plasma Mass Spectroscopy (ICP-MS Agilent 7500a, Waldbronn, Germany). The blood level was converted to plasma concentrations by division by 0.625 (plasma fraction of rat blood, assuming strictly extracellular distribution). As a control, 3 animals were treated in the same way with Gadovist®, a low molecular weight contrast agent.
The fit of the obtained data to a three compartment model (Phoenix—WinNonlin) yielded the pharmacokinetic parameters which are shown in Table 3.

[3] = Whole body imaging (dynamic MRI and tissue Gd concentration); format: in vivo, male New Zealand white rabbits; settings: rabbits
Protocol: The study was performed with a clinical whole body MRI equipped with body spine coil, abdomen flex coil, neck coil (1.5 T Magnetom Avanto, Siemens Healthcare, Erlangen, Germany). The study was done using male New Zealand white rabbits (weight 2.3-3.0 kg, n=8, Charles River Kisslegg). All animals were initially anesthetized using a body weight-adjusted intramuscular injection of a mixture (1+2) of xylazine hydrochloride (20 mg/mL, Rompun 2%, Bayer Vital GmbH, Leverkusen, Germany) and ketamine hydrochloride (100 mg/mL, Ketavet, Pfizer, Pharmacia GmbH, Berlin, Germany) using 1 mL/kg body weight. The continuous anesthesia of the intubated animals (endotracheal tube, Rueschelit Super Safe Clear, cuff 3.0 mm, Willy Ruesch AG, Kernen, Germany) was achieved by the intravenous injection of 0.9 mg propofol per kilogram per hour (10 mg/mL, Propofol-Lipuro 1%, B. Braun Melsungen AG, Melsungen, Germany). The continuous intravenous injection was performed using a MR infusion system (Continuum MR Infusion System, Medrad Europe B. V., A E Beek, Germany). The tracheal respiration (SV 900C, Maquet, Rastatt, Germany) was performed with 55% oxygen, forty breaths per minute and a breathing volume of 7 mL per kilogram body weight per minute.
Dynamic MRI measurements up to 22 min post injection with subsequent quantitative signal analysis (Siemens Mean Curve software (SYNGO Task Card, Siemens Healthcare, Erlangen, Germany), were performed for three different regions head and neck (brain, tongue, chops muscle, neck muscle), abdomen (spleen, liver, blood) and pelvis (extremity muscle). For the three different slice groups a 3D T1-weighted Vibe sequence was used (TR=4.74 ms, TE=2.38, flip=10°, 1:29 min). The dynamic measurements of the three slice groups (Head/Neck: 1:29 min, Abdomen: 0:49 min, Pelvis: 1:16 min) were done up to 22 min post injection: 1. Head/Neck: baseline, 1.4, 5.2, 8.9, 12.8, 16.5, 20.4 min, 2. Abdomen: baseline, 0.5, 4.3, 8.1, 11.9, 15.7, 19.5 min and 3. Pelvis: baseline, 2.9, 6.7, 10.5, 14.4, 18.1, 22.0 min. At 30 min post injection the animals were sacrificed and the Gd concentrations were measured using Inductively Coupled Plasma Mass Spectroscopy (ICP-MS Agilent 7500a, Waldbronn, Germany) in the following tissue samples: blood, brain, tongue, liver and extremity muscle. A quantitative image evaluation was performed for the 30 min time point p.i. due to the combination of the quantitative ICP-MS Gadolinium concentrations and the MRI region-of-interest analysis.

[4] = Off target activity screen (LeadProfilingScreen®, radioligand binding and enzyme assays); settings: commercial radioligand binding and enzyme assays
[5] = male rats, 0.1 mmol Gd/kg bolus tail vein, mean
[6] = male rats, 0.1 mmol Gd/kg bolus tail vein, three compartment model, mean

CC(C(=O)NCC(=O)NCC(CNC(=O)CNC(=O)C(C)N1CCN(CC(=O)[O-])CCN(CC(=O)[O-])CCN(CC(=O)[O-])CC1)(CNC(=O)CNC(=O)C(C)N1CCN(CC(=O)[O-])CCN(CC(=O)[O-])CCN(CC(=O)[O-])CC1)CNC(=O)CNC(=O)C(C)N1CCN(CC(=O)[O-])CCN(CC(=O)[O-])CCN(CC(=O)[O-])CC1)N1CCN(CC(=O)[O-])CCN(CC(=O)[O-])CCN(CC(=O)[O-])CC1.[Gd+3].[Gd+3].[Gd+3].[Gd+3] (stereo not drawn) [Example 3, Tetragadolinium [4,10-bis(carboxylatomethyl)-7-{3,6,12,15-tetraoxo-16-[4,7,10-tris-(carboxylatomethyl)-1,4,7,10-tetraazacyclododecan-1-yl]-9,9-bis({[({2-[4,7,10-tris-(carboxylatomethyl)-1,4,7,10-tetraazacyclododecan-1-yl]propanoyl}amino)acetyl]-amino}methyl)-4,7,11,14-tetraazaheptadecan-2-yl}-1,4,7,10-tetraazacyclododecan-1-yl]acetate]
r1 FBS ([1]; fetal bovine serum, 1.41 T, 37° C., normalized to Gd): 11.5 L/mmol/s | r1 human plasma ([1]; human plasma, 1.41 T, 37° C., normalized to Gd): 11.8 L/mmol/s | relaxivity relative to reference compound 1 ([1]; see Example A): approximately 2 fold | r1 water ([1]; water, 1.41 T, 37° C., normalized to Gd): 10.1 L/mmol/s | AUC∞ Area under the curve (to infinity) [2, 5]: 9040 µmol·min/L | MRT Mean residence time [2, 5]: 24.1 min | V1 + V2 Volume, compartments V1 + V2 [2, 5]: 0.26 L/kg | V2 Volume, compartment V2 [2, 5]: 0.15 L/kg | Vc (V1) Volume, central compartment V1 [2, 5]: 0.11 L/kg | Vd,ss Volume of distribution at steady state [2, 5]: 0.28 L/kg | t½ α Half-life, compartment V1 [2, 6]: 1.7 min | t½ β Half-life, compartment V2 [2, 6]: 18.2 min | t½ γ Half-life, compartment V3 [2, 6]: 133 min | pharmacokinetic profile (blood plasma kinetic) ([2]; rats, versus Gadovist®, FIG. 1): comparable to that of Gadovist® | slope of the linear regression between tissue gadolinium concentration and MRI signal change ([3]; tissues 30 min p.i., FIGS. 8A and 8B): 1.9 | time course of contrast enhancements / signal changes ([3]; various tissues, up to 22 min post injection, vs Reference compound 1, FIG. 7): No differences in the time course of signal changes were observed; also recorded: no differences in the time course of contrast enhancements were observed | contrast enhancement (amplitude) ([3]; various tissues, vs Reference compound 1, FIG. 7): higher compared to that of Reference compound 1 | off target activity [4]: no critical finding
